# Measurements: patent EP0033789A1, “2-alpha-Methyl-dopaminimino-6,7-dihydroxy-1,2,3,4-tetrahydronaphthalene, its salts, and a process for preparation thereof” (priority 1980, dated 1981)
# Where two headings read alike, the source gives them in different places.
# Tested on: anesthetized, open-chested dogs
# Experiment: Inotropic, chronotropic and pressor/depressor activities in anesthetized, open-chested dogs (Walton-Brodie strain gauge, ventricular and aortic catheters)
# Type: in vivo
# Conditions: for ED50 / ED (100% increase) / ED (150% increase) / ED (75% increase): Canis lupus familiaris; for ED50: read-out: Inotropic Potency CF50; for ED (100% increase): read-out: Inotropic Potency CF100; for ED (150% increase): read-out: Inotropic Potency dP/dt150; for Cardioselectivity: Change in diastolic blood pressure obtained at CF50 / Inotropic Selectivity: Change in heart rate obtained at CF50: at the dose giving 50% increase in cardiac contractile force; for Cardioselectivity: Change in diastolic blood pressure obtained at dP/dt75 / Inotropic Selectivity: Change in heart rate obtained at dP/dt75: at the dose giving 75% increase in left ventricular dP/dt; for Cardioselectivity: Change in diastolic blood pressure obtained at CF100 / Inotropic Selectivity: Change in heart rate obtained at CF100: at the dose giving 100% increase in cardiac contractile force; for Cardioselectivity: Change in diastolic blood pressure obtained at dP/dt150 / Inotropic Selectivity: Change in heart rate obtained at dP/dt150: at the dose giving 150% increase in left ventricular dP/dt; for ED (75% increase): read-out: Inotropic Potency dP/dt75
# Method: The following tests were conducted: • In anesthetized, open-chested dogs, instrumented with a Walton-Brodie strain gauge to measure cardiac contractile force, a ventricular catheter to measure left ventricular dP/dt and an aortic catheter to measure diastolic blood pressure and heart rate. Contractile force and L.V. dP/dt are indices of cardiac contractility and provide information on the inotropic state of the heart. The experimental standard drugs are compared by normalizing pressor/depressor and heart rate responses to a given inotropic effect. Cardioselective inotropic agents will produce minimal diastolic pressure changes for any given inotropic effect. Likewise, inotropic selective agents will produce minimal heart rate changes for any given inotropic effect.
# [1] = dose required to produce 50% increase in cardiac contractile force (CF), means ± SEM
# [2] = dose required to produce 100% increase in cardiac contractile force (CF), means ± SEM
# [3] = dose required to produce 150% increase in left ventricular dP/dt, means ± SEM
# [4] = dose required to produce 75% increase in left ventricular dP/dt, means ± SEM
SMILES,ED50 [1],ED (100% increase) [2],ED (150% increase) [3],Cardioselectivity: Change in diastolic blood pressure obtained at CF50 (means ± SEM),Inotropic Selectivity: Change in heart rate obtained at CF50 (means ± SEM),Cardioselectivity: Change in diastolic blood pressure obtained at dP/dt75 (means ± SEM),Inotropic Selectivity: Change in heart rate obtained at dP/dt75 (means ± SEM),Cardioselectivity: Change in diastolic blood pressure obtained at CF100 (means ± SEM),Inotropic Selectivity: Change in heart rate obtained at CF100 (means ± SEM),Cardioselectivity: Change in diastolic blood pressure obtained at dP/dt150 (means ± SEM),Inotropic Selectivity: Change in heart rate obtained at dP/dt150 (means ± SEM),ED (75% increase) [4],ED50,ED (100% increase),ED (75% increase),ED (150% increase)
"CC(CCc1ccc(O)cc1)NCCc1ccc(O)c(O)c1 (racemic) [D, (±)-4-(2(3-p-hydroxyphenyl-1-methylpropyl)amino) ethyl-1,2-benzenediol]",1.4 ± 0.2 µg/kg,4.4 µg/kg,4 ± 0.6 µg/kg,3 ± 1 mm Hg,3 ± 1 BPM,4 ± 1 mm Hg,3 ± 1 BPM,4 ± 3 mm Hg,17 ± 5 BPM,3 ± 3 mm Hg,13 ± 2 BPM,–,–,–,–,–
"COc1cc2c(cc1OC)CC(NC(C)CCc1ccc(O)cc1)CC2 (stereo not shown) [A, 2-(3-p-hydroxyphenyl-1-methylpropyl) amino-6,7-dimethoxy-1,2,3,4-tetrahydronaphthalene]",158 µg/kg,333 µg/kg,756 µg/kg,-17 mm Hg,5 BPM,-23 mm Hg,10 BPM,-27 mm Hg,14 BPM,-40 mm Hg,27 BPM,262 µg/kg,–,–,–,–
"CC(CCc1ccc(O)cc1)NC1CCc2cc(O)c(O)cc2C1 (stereo not shown) [B, 2-(3-p-hydroxyphenyl-1-methylpropyl) amino-6,7-dihydroxy-1,2,3,4-tetrahydronaphthalene]",56.3 µg/kg,198 µg/kg,359 µg/kg,-13 mm Hg,-17 BPM,37 mm Hg,0 BPM,57 mm Hg,15 BPM,75 mm Hg,32 BPM,125 µg/kg,–,–,–,–
"NC1CCc2cc(O)c(O)cc2C1 (stereo not shown) [C, 2-amino-6,7-dihydroxy-1,2,3,4-tetrahydro-naphthalene]",–,–,–,31 ± 9 mm Hg,-12 ± 9 BPM,30 + 5 mm Hg,-12 ± 10 BPM,61 ± 10 mm Hg,21 ± 17 BPM,51 ± 5 mm Hg,5 ± 8 BPM,–,44.9 ± 3.3 µg/kg,119 ± 34.7 µg/kg,40.4 ± 3.1 µg/kg,75.6 ± 5.8 µg/kg
"NCCc1ccc(O)c(O)c1 [E, 4-(2-aminoethyl)-1,2-benzenediol]",9.1 ± 1 µg/kg,19.6 ± 2.7 µg/kg,23.7 ± 3 µg/kg,-20 ± 6 mm Hg,5 ± 5 BPM,-20 ± 7 mm Hg,5 ± 6 BPM,-12 ± 9 mm Hg,12 ± 5 BPM,-10 ± 8 mm Hg,13 ± 6 BPM,9.9 ± 0.7 µg/kg,–,–,–,–
"CC(C)NCC(O)c1ccc(O)c(O)c1 (stereo not shown) [F, 4-(1-hydroxy-2-((1-methylethyl)-amino)ethyl)-1,2-benzenediol]",–,0.09 ± 0.02 µg/kg,0.14 ± 0.05 µg/kg,-6 ± 2 mm Hg,14 ± 2 BPM,-6 ± 2 mm Hg,14 ± 1 BPM,-15 ± 2 mm Hg,34 ± 3 BPM,-16 ± 2 mm Hg,41 ± 5 BPM,0.04 ± 0.01 µg/kg,–,–,–,–
